In US20250313535A1, “ALPHA 4 BETA 7 INTEGRIN MODULATORS AND USES THEREOF” (DICE MOLECULES SV, INC., priority 2022, published 2025):

Key:
α4β1 integrin = α4β1 integrin (Homo sapiens (Human), UniProt P05556+P13612); experiment: Integrin Adhesion Assay: Protocol 5 (VCAM-coated plate, RPMI-8866 cells with stable LOF mutation of the ITGB7 gene); type: cell-based; details: RPMI-8866 cells with stable LOF mutation of the ITGB7 gene; read-out: Mean IC50 α4β1 KO^b
Procedure, shortened: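 RPMI-8866 B cells with CRISPR/Cas9 ITGB7 knockout (clonal, verified by flow cytometry) adhered to VCAM-coated wells for 1 h at 37° C in HEPES/NaCl buffer with 1 mM MnCl2, 0.1 mM CaCl2, 1% BSA, 1% DMSO. Bound cells quantified by CellTiter-Glo luminescence after washing; % inhibition versus DMSO and control, 4-parameter fit.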

α4β7 integrin = α4β7 integrin (Homo sapiens (Human), UniProt P13612+P26010); experiment: Integrin Adhesion Assay: Protocol 4 (MAdCAM-coated plate, RPMI-8866 cells with stable LOF mutation of the ITGB1 gene); type: cell-based; details: RPMI-8866 cells with stable LOF mutation of the ITGB1 gene; read-out: Mean IC50 α4β7 KO^a
Sequence of α4β7 integrin (P13612 34-1032): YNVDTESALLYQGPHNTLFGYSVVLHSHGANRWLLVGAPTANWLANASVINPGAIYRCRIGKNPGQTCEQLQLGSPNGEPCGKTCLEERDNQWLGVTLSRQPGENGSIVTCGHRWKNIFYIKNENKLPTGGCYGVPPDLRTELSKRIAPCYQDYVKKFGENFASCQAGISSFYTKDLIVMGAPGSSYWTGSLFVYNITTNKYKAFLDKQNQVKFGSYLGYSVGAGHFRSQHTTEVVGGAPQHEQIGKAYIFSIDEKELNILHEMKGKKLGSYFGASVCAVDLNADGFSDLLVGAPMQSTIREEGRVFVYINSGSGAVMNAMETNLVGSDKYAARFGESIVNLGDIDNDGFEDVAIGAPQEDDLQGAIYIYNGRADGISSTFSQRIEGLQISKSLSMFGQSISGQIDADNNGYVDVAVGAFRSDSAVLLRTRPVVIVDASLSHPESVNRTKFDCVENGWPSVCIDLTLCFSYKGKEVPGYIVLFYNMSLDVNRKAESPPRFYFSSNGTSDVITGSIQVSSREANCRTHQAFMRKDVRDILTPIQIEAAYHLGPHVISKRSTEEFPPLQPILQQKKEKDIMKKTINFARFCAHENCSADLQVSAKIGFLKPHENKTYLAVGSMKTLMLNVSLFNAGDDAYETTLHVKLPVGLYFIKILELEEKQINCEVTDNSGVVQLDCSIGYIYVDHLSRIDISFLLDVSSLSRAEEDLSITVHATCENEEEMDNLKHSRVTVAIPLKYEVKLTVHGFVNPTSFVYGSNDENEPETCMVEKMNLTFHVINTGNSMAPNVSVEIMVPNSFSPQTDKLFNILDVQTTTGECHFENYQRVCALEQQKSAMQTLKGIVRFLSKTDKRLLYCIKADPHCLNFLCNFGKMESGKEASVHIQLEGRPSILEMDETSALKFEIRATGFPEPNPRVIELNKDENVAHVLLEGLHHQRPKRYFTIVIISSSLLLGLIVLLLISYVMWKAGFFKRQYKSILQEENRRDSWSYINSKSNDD
Sequence of α4β7 integrin (P26010 20-798): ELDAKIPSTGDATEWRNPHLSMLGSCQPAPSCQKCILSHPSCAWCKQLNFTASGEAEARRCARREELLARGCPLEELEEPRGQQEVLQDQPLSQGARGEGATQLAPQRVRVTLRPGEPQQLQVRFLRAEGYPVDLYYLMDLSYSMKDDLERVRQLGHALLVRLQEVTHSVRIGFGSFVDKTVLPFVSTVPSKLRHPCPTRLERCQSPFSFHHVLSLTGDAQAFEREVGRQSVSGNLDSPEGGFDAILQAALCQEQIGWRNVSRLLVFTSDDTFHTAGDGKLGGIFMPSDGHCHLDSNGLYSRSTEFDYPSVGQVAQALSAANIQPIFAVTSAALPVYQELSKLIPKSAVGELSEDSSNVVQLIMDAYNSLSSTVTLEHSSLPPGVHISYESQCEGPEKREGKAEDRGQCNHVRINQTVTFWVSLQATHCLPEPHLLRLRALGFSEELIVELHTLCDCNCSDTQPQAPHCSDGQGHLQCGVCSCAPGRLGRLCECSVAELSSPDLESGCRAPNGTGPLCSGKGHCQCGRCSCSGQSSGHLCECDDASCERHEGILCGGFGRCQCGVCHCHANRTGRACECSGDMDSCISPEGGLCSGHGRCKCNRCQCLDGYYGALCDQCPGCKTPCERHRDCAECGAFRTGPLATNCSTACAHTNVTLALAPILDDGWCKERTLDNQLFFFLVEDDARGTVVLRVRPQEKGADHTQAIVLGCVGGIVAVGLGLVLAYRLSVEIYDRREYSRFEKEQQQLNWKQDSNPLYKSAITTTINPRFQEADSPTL
Procedure, shortened: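 RPMI-8866 cells with CRISPR/Cas9 knockout of ITGB1 (2×10^6/mL) were added to MAdCAM-coated wells with compound (1% DMSO) in HEPES/NaCl buffer with 1 mM MnCl2, 0.1 mM CaCl2 and 1% BSA, then incubated 1 h at 37 °C. After four washes, adherent cells were quantified by CellTiter-Glo luminescence. Percent inhibition versus DMSO and control compound was fitted to 4-parameter curves.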

Sequence of α4β1 integrin (P13612 34-1032): as the sequence (P13612 34-1032) above
Sequence of α4β1 integrin (P05556 21-798): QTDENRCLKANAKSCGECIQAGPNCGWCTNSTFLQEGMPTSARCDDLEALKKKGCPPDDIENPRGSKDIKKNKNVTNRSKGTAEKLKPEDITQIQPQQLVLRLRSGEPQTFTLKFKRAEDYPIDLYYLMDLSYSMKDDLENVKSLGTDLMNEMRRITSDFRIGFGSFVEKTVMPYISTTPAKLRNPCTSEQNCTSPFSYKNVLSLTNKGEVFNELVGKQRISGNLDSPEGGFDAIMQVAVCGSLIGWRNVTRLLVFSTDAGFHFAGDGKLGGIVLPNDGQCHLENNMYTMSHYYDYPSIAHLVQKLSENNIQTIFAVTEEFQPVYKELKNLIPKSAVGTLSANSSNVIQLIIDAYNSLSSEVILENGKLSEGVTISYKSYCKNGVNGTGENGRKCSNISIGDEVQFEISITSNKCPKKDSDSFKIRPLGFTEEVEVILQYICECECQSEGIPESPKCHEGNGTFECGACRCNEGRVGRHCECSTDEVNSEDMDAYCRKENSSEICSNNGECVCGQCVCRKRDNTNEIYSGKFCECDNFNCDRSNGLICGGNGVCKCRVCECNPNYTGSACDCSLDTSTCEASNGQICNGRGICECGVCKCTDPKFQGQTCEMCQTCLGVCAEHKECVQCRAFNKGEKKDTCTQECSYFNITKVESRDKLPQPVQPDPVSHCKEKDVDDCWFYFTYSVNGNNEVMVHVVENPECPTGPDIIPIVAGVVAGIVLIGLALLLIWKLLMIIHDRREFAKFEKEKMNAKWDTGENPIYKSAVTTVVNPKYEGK

IC50 (α4β1 integrin) | IC50 (α4β7 integrin) | Compound
> 1000 nM | < 10 nM | CN(C)Cc1cccc2c(-c3cccc4c(C[C@H](NC(=O)C5(C(F)(F)F)CCN([C@@H]6CCOC6)CC5)C(=O)O)cccc34)nccc12 [Compound 592]
100 to 1000 nM | < 10 nM | CN(C)Cc1cccc2c(-c3cccc4c(C[C@H](NC(=O)C5(C(F)(F)F)CCN([C@H]6CCOC6)CC5)C(=O)O)cccc34)nccc12 [Compound 593]
> 1000 nM | 10 to 100 nM | O=C(O)[C@H](Cc1cccc2c(-c3nccc4c(CN5CCC(F)(F)C5)cccc34)cccc12)NC(=O)C1(C(F)(F)F)CCN(CC(F)(F)F)CC1 [Compound 594]
100 to 1000 nM | < 10 nM | O=C(O)[C@H](Cc1cccc2c(-c3nccc4c(CN5CCC(F)(F)C5)cccc34)cccc12)NC(=O)C1(C(F)(F)F)CCN(C2COC2)CC1 [Compound 595]
100 to 1000 nM | < 10 nM | COc1ccc(CN2CCCC2)c(OC)c1-c1cccc2c(C[C@H](NC(=O)c3c(C)cccc3F)C(=O)O)cccc12 [Compound 596]
> 1000 nM | 10 to 100 nM | COc1ccc(CN2CCC(F)(F)C2)c(OC)c1-c1cccc2c(C[C@H](NC(=O)c3c(C)cccc3F)C(=O)O)cccc12 [Compound 597]
> 1000 nM | 10 to 100 nM | O=C(O)[C@H](Cc1cccc2c(-c3cc(CN4CCC(F)(F)C4)cc4ccncc34)cccc12)NC(=O)C1(C(F)(F)F)CCN(C2COC2)CC1 [Compound 598]
100 to 1000 nM | < 10 nM | COc1ccc(CN(C)C)nc1-c1cccc2c(C[C@H](NC(=O)c3c(C)cccc3F)C(=O)O)cccc12 [Compound 599]
> 1000 nM | 10 to 100 nM | COc1ccc(CN2CCC(F)(F)CC2)nc1-c1cccc2c(C[C@H](NC(=O)c3c(C)cccc3F)C(=O)O)cccc12 [Compound 600]
> 1000 nM | < 10 nM | COc1cnc(CN(C)C)cc1-c1cccc2c(C[C@H](NC(=O)c3c(C)cccc3F)C(=O)O)cccc12 [Compound 601]
> 1000 nM | < 10 nM | COc1ccc(CN(C)C)c(OC)c1-c1cccc2c(C[C@H](NC(=O)c3c(C)cc(C4CC(F)(F)C4)cc3F)C(=O)O)cccc12 [Compound 602]
> 1000 nM | 10 to 100 nM | COc1ccc(CN(C)C)c(OC)c1-c1cccc2c(C[C@H](NC(=O)c3c(C)cc(C(F)(F)F)cc3F)C(=O)O)cccc12 [Compound 603]
> 1000 nM | < 10 nM | COc1ccc(CN2CCC(F)(F)CC2)c(OC)c1-c1cccc2c(C[C@H](NC(=O)c3c(C)cncc3F)C(=O)O)cccc12 [Compound 604]
> 1000 nM | 10 to 100 nM | COc1ccc(CN2CCC(F)(F)CC2)c(OC)c1-c1cccc2c(C[C@H](NC(=O)c3c(F)cccc3Cl)C(=O)O)cccc12 [Compound 605]
> 1000 nM | 10 to 100 nM | COc1ccc(CN2CCC(F)(F)CC2)c(OC)c1-c1cccc2c(C[C@H](NC(=O)c3c(C)ccnc3F)C(=O)O)cccc12 [Compound 606]
100 to 1000 nM | < 10 nM | COc1ccc(CN(C)C)c(OC)c1-c1cccc2c(C[C@H](NC(=O)c3c(C)cc(NCC(F)(F)F)cc3F)C(=O)O)cccc12 [Compound 607]
> 1000 nM | 10 to 100 nM | COc1ccc(CN2CCC(F)(F)CC2)c(OC)c1-c1cccc2c(C[C@H](NC(=O)c3c(C)cc(NCC(F)(F)F)cc3F)C(=O)O)cccc12 [Compound 608]
100 to 1000 nM | 10 to 100 nM | COc1ccc(CN2CCC(F)(F)CC2)c(OC)c1-c1cccc2c(C[C@H](NC(=O)c3c(C)cc4cnn(CC(F)(F)F)c4c3F)C(=O)O)cccc12 [Compound 609]
100 to 1000 nM | < 10 nM | COc1ccc(CN(C)C)c(OC)c1-c1cccc2c(C[C@H](NC(=O)c3c(F)cccc3Cl)C(=O)O)cccc12 [Compound 610]

IC50 (α4β1 integrin) | IC50 (α4β7 integrin) | Compound
> 1000 nM | < 10 nM | COc1ccc(CN2CCC(F)(F)CC2)c(OC)c1-c1cccc2c(C[C@H](NC(=O)C3(C(F)(F)F)CCN(C4COC4)CC3)C(=O)O)cccc12 [Compound 611]
100 to 1000 nM | < 10 nM | COc1ccc(CN(C)C)c(OC)c1-c1cccc2c(C[C@H](NC(=O)c3c(Cl)cccc3Cl)C(=O)O)cccc12 [Compound 612]
100 to 1000 nM | < 10 nM | COc1ccc(CN(C)C)c(OC)c1-c1cccc2c(C[C@H](NC(=O)c3c(C)cccc3Cl)C(=O)O)cccc12 [Compound 613]
100 to 1000 nM | 10 to 100 nM | COc1ccc(CN2CCC(F)(F)CC2)c(OC)c1-c1cccc2c(C[C@H](NC(=O)c3c(F)cncc3Cl)C(=O)O)cccc12 [Compound 614]
> 1000 nM | 10 to 100 nM | COc1ccc(CN2CCC(F)(F)CC2)c(OC)c1-c1cccc2c(C[C@H](NC(=O)c3c(F)ccnc3C)C(=O)O)cccc12 [Compound 615]
> 1000 nM | 10 to 100 nM | COc1ccc(CN2CCC(F)(F)CC2)c(OC)c1-c1cccc2c(C[C@H](NC(=O)c3c(C)cc(C45CCOCC4C5)cc3F)C(=O)O)cccc12 (stereo partly shown) [Compound 616]
> 1000 nM | 10 to 100 nM | CN(C)Cc1cc(-c2cccc3c(C[C@H](NC(=O)C4(C(F)(F)F)CCN(CC(F)(F)F)CC4)C(=O)O)cccc23)c2cnccc2c1 [Compound 618]
> 1000 nM | < 10 nM | Cc1cccc(F)c1C(=O)N[C@@H](Cc1cccc2c(-c3nccc4c(CN5CCCC5)cccc34)cccc12)C(=O)O [Compound 619]
> 1000 nM | < 10 nM | O=C(O)[C@H](Cc1cccc2c(-c3cc(CN4CCCC4)cc4ccncc34)cccc12)NC(=O)C1(C(F)(F)F)CCN(C2COC2)CC1 [Compound 620]
100 to 1000 nM | < 10 nM | COc1ccc(CN2CCCCC2)c(OC)c1-c1cccc2c(C[C@H](NC(=O)c3c(C)cccc3F)C(=O)O)cccc12 [Compound 621]
100 to 1000 nM | < 10 nM | CCN(CC)Cc1ccc(OC)c(-c2cccc3c(C[C@H](NC(=O)c4c(C)cccc4F)C(=O)O)cccc23)c1OC [Compound 622]
100 to 1000 nM | < 10 nM | COc1ccc(CN2CCC3(CC2)CC3)c(OC)c1-c1cccc2c(C[C@H](NC(=O)c3c(C)cccc3F)C(=O)O)cccc12 [Compound 623]
100 to 1000 nM | < 10 nM | COc1ccc(CN2CCC(F)CC2)c(OC)c1-c1cccc2c(C[C@H](NC(=O)c3c(C)cccc3F)C(=O)O)cccc12 [Compound 624]
100 to 1000 nM | < 10 nM | COc1ccc(CN2CCC(C)CC2)c(OC)c1-c1cccc2c(C[C@H](NC(=O)c3c(C)cccc3F)C(=O)O)cccc12 [Compound 625]
100 to 1000 nM | < 10 nM | COc1ccc(CN2CCC(C)(C)CC2)c(OC)c1-c1cccc2c(C[C@H](NC(=O)c3c(C)cccc3F)C(=O)O)cccc12 [Compound 626]
> 1000 nM | 10 to 100 nM | COc1ccc(CN2CC(F)(F)C2)c(OC)c1-c1cccc2c(C[C@H](NC(=O)c3c(C)cccc3F)C(=O)O)cccc12 [Compound 627]
100 to 1000 nM | < 10 nM | COc1ccc(CN2CCC2)c(OC)c1-c1cccc2c(C[C@H](NC(=O)c3c(C)cccc3F)C(=O)O)cccc12 [Compound 628]
> 1000 nM | < 10 nM | COc1ccc(CN2CCC(F)C2)c(OC)c1-c1cccc2c(C[C@H](NC(=O)c3c(C)cccc3F)C(=O)O)cccc12 (stereo partly shown) [Compound 629]
100 to 1000 nM | < 10 nM | COc1ccc(CN2CCCCC2(C)C)c(OC)c1-c1cccc2c(C[C@H](NC(=O)c3c(C)cccc3F)C(=O)O)cccc12 [Compound 630]
